Key:
[1] = tested on: recombinant CYP enzymes (CYP1A2, 2A6, 2B6, 2C8, 2C9, 2C19, 2D6, 2E1, 3A4 and 3A5); experiment: Turnover in recombinant CYP enzymes; type: in vitro ADME; conditions: 0.1 μM and 1 μM
Method: To identify the enzymes responsible for P450 mediated metabolism, the turnover of Compound A was tested in recombinant CYP enzymes (CYP1A2, 2A6, 2B6, 2C8, 2C9, 2C19, 2D6, 2E1, 3A4 and 3A5) at 0.1 μM and 1 μM.

[2] = Compound turnover and metabolite formation in human hepatocytes with or without CYP3A inhibitor ketoconazole; type: in vitro ADME
Method: Approximately 10% of Compound A disappeared in 60 minutes.
Since Compound D was predominantly metabolized by CYP3A4, further experiments were conducted with Compound A in human hepatocytes in the presence and absence of CYP3A inhibitor ketoconazole. […] Parent disappearance data indicated a CYP3A involvement in the metabolism of Compound A (FIG. 1); however, the very low intrinsic clearance values make it difficult to provide an accurate determination of a percentage involvement of CYP3A via a substrate depletion method as described above.
Within the same experiments, the formation of Compound A metabolites in the absence of ketoconazole was observed (FIG. 2).

[3] = Metabolite identification and relative abundance in human hepatocytes; type: in vitro ADME; conditions: Compound A 10 μM in human hepatocytes (1 million cells/mL), 4 hours, 37° C.
Method: Compound A was incubated at 10 μM in human hepatocytes (1 million cells/mL) for 4 hours at 37° C. under air with 5% CO2. The reaction was stopped by adding acetonitrile at a ratio of 3:1. Following centrifugation the supernatant was transferred to a clean tube and dried under a stream of N2. Following reconstitution in 30% acetonitrile, aliquots of the sample were injected onto a LC/UV/MS system for metabolite identification and profiling. This allowed assessment of the metabolites formed and an indication of their relative abundance (via UV, Table 6).

[4] = target: T1, human metabotropic glutamate receptor 2 (mGluR2) (Homo sapiens, UniProt Q14416); experiment: Binding Assay (mGluR2 GTPγ35S assay); type: biochemical; conditions: membranes from CHO-K1 cells expressing human mGluR2; L-glutamate and GTPγ35S stimulation, 45 minutes, SPA
T1 construct: expressed in transfected cells; host or cells: CHO-K1
Method: This assay was developed to measure the agonist and/or positive allosteric modulator (PAM) activity of compounds at the human metabotropic glutamate receptor 2 (mGluR2).
Crude membranes were prepared from CHO-K1 cells expressing human mGluR2 and stored at −80° C. in aliquots in 2 mg/mL concentrations using a previously described method Fenge et al., Cytotechnology 38 (2002). Assay buffer is defined as 0.22 μM filtered water containing 50 mM HEPES (Teknova), 10 mM MgCl2 (Teknova), 50 mM NaCl (Teknova), 100 μM DTT (Sigma 43819), pH 7.4. Membrane solution containing membranes, beads, and GDP diluted in assay buffer was prepared in excess and incubated for 15 to 30 minutes at room temperature (25° C.). Membrane solution was prepared in a per-well ratio of 1.8 μg membranes, 225 μg PVT-WGA SPA beads (Perkin Elmer RPNQ0001), 3.3 μM GDP (Sigma G7127) in assay buffer to a final per-well volume of 180 μl. Stimulation buffer was prepared by diluting L-glutamate to 10 μM and GTPγ^35S to 1 nM in assay buffer. […] 20 μL of stimulation buffer was then added to individual wells, plates were sealed, incubated on a shaker at room temperature for 45 minutes, centrifuged at 1000 RPM for 5 minutes and then assessed using a ^35S SPA Program (1 minute read time. Low Background Paralux) on a MicroBeta instrument (PerkinElmer, Waltham, Massachusetts).

[5] = Pharmacokinetics after intravenous bolus in rats; type: in vivo; conditions: male Wistar rat, nominal dose 1.0 mg/kg, plasma
Method: The animals were single dosed via intravenous (IV) bolus to tail vein over approximately 5 seconds. The animals were not fasted prior to dosing. The single dose formulation samples were collected from middle of formulation and stored at 5±3° C. for potential analysis. Animals were evaluated during in-life phase.
The blood samples were centrifuged at 2000 g for 5 minutes at 4° C. to obtain plasma. Plasma samples were stored in polypropylene tubes, quickly frozen in ice box and kept at −80° C. Plasma samples were deprotainated by solvent precipitation. Concentration of Compounds A and D in plasma and tissue samples were analyzed using a LC-MS/MS method. WinNonlin version 6.2 will be used for pharmacokinetic parameters calculations. AUC was calculated using log trapezoidal method.

hERG ion channel = hERG ion channel (Homo sapiens, UniProt Q12809); conditions: as disclosed in WO 2009/148403; cited from earlier work
mGluR2 = mGluR2 (Homo sapiens, UniProt Q14416); conditions: as disclosed in WO 2009/148403; cited from earlier work
[6] = as disclosed in WO 2009/148403; cited from earlier work

T1 sequence (Q14416 19-872): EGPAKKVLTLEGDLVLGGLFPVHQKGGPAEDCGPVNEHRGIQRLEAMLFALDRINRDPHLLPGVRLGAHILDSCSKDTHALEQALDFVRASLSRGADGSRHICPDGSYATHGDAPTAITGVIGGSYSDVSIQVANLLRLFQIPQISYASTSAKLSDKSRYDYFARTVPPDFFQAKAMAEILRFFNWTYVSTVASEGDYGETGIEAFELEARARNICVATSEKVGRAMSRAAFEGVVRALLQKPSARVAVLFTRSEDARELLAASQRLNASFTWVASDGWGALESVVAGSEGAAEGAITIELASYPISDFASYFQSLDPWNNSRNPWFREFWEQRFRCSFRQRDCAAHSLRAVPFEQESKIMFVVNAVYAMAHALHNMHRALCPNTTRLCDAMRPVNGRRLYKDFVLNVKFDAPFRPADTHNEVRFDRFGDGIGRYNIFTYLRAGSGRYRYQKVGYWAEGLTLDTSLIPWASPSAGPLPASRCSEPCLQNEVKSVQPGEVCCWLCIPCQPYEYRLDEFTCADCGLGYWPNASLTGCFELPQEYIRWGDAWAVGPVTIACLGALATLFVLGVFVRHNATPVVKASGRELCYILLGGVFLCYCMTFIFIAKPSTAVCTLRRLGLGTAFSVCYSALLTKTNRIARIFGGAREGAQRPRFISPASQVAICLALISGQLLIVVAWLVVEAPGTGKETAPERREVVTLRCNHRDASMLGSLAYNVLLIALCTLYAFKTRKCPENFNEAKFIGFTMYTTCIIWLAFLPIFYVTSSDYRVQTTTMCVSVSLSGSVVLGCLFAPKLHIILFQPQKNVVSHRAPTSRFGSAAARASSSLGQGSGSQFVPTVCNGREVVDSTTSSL
Sequence of mGluR2 (Q14416 19-872): as above
Sequence of hERG ion channel (Q12809 whole entry): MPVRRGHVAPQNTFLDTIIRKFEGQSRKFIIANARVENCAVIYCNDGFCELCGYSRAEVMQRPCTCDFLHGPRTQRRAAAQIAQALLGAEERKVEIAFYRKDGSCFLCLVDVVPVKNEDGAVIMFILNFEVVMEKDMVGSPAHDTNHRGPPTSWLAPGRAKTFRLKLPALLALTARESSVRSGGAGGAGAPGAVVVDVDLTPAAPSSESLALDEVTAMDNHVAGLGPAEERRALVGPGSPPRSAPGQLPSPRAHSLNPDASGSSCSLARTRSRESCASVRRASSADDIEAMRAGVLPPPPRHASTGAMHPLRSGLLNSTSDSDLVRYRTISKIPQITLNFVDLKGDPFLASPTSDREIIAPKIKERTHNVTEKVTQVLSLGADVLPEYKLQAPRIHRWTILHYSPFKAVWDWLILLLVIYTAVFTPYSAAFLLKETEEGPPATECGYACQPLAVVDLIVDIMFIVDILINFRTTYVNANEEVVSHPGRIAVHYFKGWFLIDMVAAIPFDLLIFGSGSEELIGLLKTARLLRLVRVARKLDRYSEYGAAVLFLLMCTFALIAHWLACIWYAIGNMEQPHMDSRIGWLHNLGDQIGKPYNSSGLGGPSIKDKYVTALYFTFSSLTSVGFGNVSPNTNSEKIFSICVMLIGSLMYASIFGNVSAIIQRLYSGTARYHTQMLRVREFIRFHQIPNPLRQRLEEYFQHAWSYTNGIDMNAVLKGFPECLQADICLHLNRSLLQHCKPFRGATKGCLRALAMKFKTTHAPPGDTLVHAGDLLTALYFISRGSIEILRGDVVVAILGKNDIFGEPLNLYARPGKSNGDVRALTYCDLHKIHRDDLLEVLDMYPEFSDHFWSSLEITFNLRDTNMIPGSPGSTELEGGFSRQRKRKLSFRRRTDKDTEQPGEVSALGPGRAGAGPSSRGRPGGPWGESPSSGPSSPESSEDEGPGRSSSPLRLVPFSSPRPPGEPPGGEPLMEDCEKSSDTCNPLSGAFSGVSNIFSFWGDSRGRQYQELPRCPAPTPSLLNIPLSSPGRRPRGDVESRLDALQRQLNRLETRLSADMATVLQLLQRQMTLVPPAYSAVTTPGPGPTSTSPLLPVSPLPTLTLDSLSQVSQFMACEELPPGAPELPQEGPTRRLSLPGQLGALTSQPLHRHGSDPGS

Row | Turnover in recombinant CYP enzymes [1] | Turnover in human hepatocytes [2] | Parent compound disappeared ([2]; 60 minutes, absence of ketoconazole) | Turnover in presence of CYP3A inhibitor ([2]; with ketoconazole) | Relative UV abundance (%) Human [3] | EC50 [4] | AUC [5] | clearance [5] | half-life [5] | Compound | Capacity to activate the hERG ion channel (hERG ion channel) | mGluR2 modulator activity (mGluR2) | Solubility [6]
1 | No significant turnover was observed | very low turnover | Approximately 10% | No turnover was observed | 94.2% | 170 ± 9 nM | 1.29 µM·h | 31.1 mL/min/kg | 45.7 min | [2H]C1([2H])OC([2H])([2H])C([2H])([2H])N(C(=O)c2cc(-c3cc(Cl)c4c(c3)CN([C@@H](C)C3CC3)C4=O)on2)C1([2H])[2H] [Compound A, (S)-7-chloro-2-(1-cyclopropylethyl)-5-(3-(morpholine-4-carbonyl-2,2,3,3,5,5,6,6-d8)isoxazol-5-yl)isoindolin-1-one] | – | – | –
2 | predominantly metabolised by CYP3A4 | – | – | – | – | 121 ± 56 nM | 0.915 µM·h | 44.3 mL/min/kg | 48.8 min | C[C@@H](C1CC1)N1Cc2cc(-c3cc(C(=O)N4CCOCC4)no3)cc(Cl)c2C1=O [Compound D, (S)-7-chloro-2-(1-cyclopropylethyl)-5-(3-(morpholine-4-carbonyl)isoxazol-5-yl)isoindolin-1-one, reference compound] | low capacity to activate the hERG ion channel | highly active | favorable solubility
